Data as given in paper PMC10734620, “A blinded in vitro analysis of the intrinsic immunogenicity of hepatotoxic drugs: implications for preclinical risk assessment” (Toxicological Sciences, 2023).
Where two headings read alike, the source gives them in different places.

Legend:
PBMC = assay: Inhibition of mitogen-induced (PHA-P) PBMC proliferation; type: cell-based, human
Protocol: Test compounds were provided by GSK to Liverpool as blinded dry powders with a given volume of dimethyl sulfoxide to prepare stock concentrations of 50 mM. Stock concentrations were aliquoted and stored at −80°C until required for experiments. A fresh aliquot was utilized for every experiment. PBMC from 3 healthy donors were used to determine the maximum tolerated concentration of each test compound. PBMC (0.15 × 10^6) were cultured with graded compound concentrations in U-bottomed 96-well plates for 48 h at 37°C, 5% CO2. Phytohemagglutinin (PHA-P; 10 µg/ml) was added to cells for a further 24 h followed by assessment of proliferation through the addition of [^3H]-thymidine (0.5 µCi/well) for the last 16 h. […] The IC50 value was then calculated using 4-parameter logistic curve-fitting model (GraphPad prism 7.0).
Figure 2. Toxicity profiles of training and test compounds. […] PHA-P (10 µg/ml) was added to cells for a further 24 h followed by assessment of proliferation through the addition of [^3H]-thymidine (0.5 µCi/well) for the last 16 h. […] 4-parameter logistic functions were fit to the data and IC50 values were then reported (GraphPad prism 7.0). […] LPB (Liverpool Pharmacology Biobank) represents the unique identifier for PBMC isolated from each consented healthy blood donor for drug safety research. Percentage proliferation for each compound concentration = Proliferation following drug exposure divided by proliferation after cell culture media exposure multiplied by 100.

naïve T-cells = assay: Priming of naïve human T-cells (dendritic cell-T-cell coculture); type: cell-based; conditions: for Proliferation of primed T-cells restimulated with titrated concentrations: 3 drug concentrations (low, medium, high), 48 h; for Number of donors with naïve T-cell priming: 3 study donors; for Proliferation of primed T-cells, drug- vs medium-restimulated wells: 14 days priming, restimulation 48 h at single concentration, 48 wells, [3H]-thymidine
Protocol: CD14+ monocytes were positively selected using CD14 antibody-conjugated microbeads. This was followed by the depletion of CD25+ cells from the CD14- population and the negative selection of CD45RA+ naïve T-cells. […] Dendritic cells were generated by culturing monocytes with a cocktail of GM-CSF (800 U/ml) and IL-4 (800 U/ml) in culture media for 6 days. Both cytokines were purchased from Peprotech (New Jersey). A maturation cocktail of TNF-α (25 ng/ml) and LPS (1 µg/ml) was added for 16 h before establishing the T-cell priming culture. Dendritic cells (8 × 10^3 per well) were cultured with naïve T-cells (1 × 10^5 per well) and the test compounds in a 96-well U-bottom tissue culture plate for 14 days at 37°C, 5% CO2. Cells were then washed extensively to remove unbound drug and cultures were restimulated with test compound or medium control (48 wells) for 48 h. Subsequent experiments were performed with training compounds to investigate the dose-dependent stimulation of naïve T-cells. In these experiments, T-cells were cultured with 3 concentrations of the test compound and medium (negative control) during the restimulation step. T-cell proliferative responses were determined by addition of [^3H]-thymidine (0.5 µCi/well) for the final 16 h of the culture period. Plates were harvested and counted as described above. […] Student’s t test was performed to determine statistical significance of T-cell proliferation when comparing medium- and drug-treated cultures (*p ≤ .05; **p ≤ .005; ***p < .001).
Figure 3. Naïve T-cell priming with training compounds. CD14+ monocytes were utilized to generate dendritic cells with a cocktail of GM-CSF (800 U/ml) and IL-4 (800 U/ml) in culture media for 6 days. […] A, Nitroso sulfamethoxazole. B, Vancomycin. C, Bandrowski’s base. D, Carbamazepine. E, Piperacillin. The degree of naïve T-cell priming was determined by comparing the counts per minutes (cpm) of drug and media-treated cultures using a beta counter. Student’s t test was performed to determine statistical significance (*p ≤ .05; **p ≤ .005; ***p < .001). Each data point represents T-cells proliferation in individual well of a 96 U-bottomed plate.
Figure 4. Dose-dependent stimulation of primed T-cells with training compound. […] Primed cells were washed extensively and then restimulated with 3 drug concentrations (low, medium, and high) for 48 h followed by determination of T-cell activation by [^3H]-thymidine incorporation. Each data point represents T-cells proliferation in individual well of a 96 U-bottomed plate.
Figure 5. Naïve T-cell priming with test compounds. […] B, Dacarbazine. […] F, Iproniazid. G, Mepivacaine. H, Nevirapine. […] J, Phenoxybenzamine. Primed cells were washed extensively and then restimulated medium or drug for 48 h followed by determination of T-cell activation by [^3H]-thymidine incorporation. Each data point represents T-cells proliferation in individual well of a 96 U-bottomed plate.

T-cell clones = assay: Generation and drug-specificity testing of T-cell clones; type: cell-based, human; conditions: for Detection of drug-responsive T-cell clones / T-cell clones responsive to drug (SI ≥ 2): 3 donors; for Detection of drug-responsive T-cell clones: SI ≥ 2; for Dose-dependent proliferation of drug-responsive T-cell clones: titrated concentrations, 48 h, EBV-transformed B-cells; for T-cell clones responsive to drug (SI ≥ 2): training compounds, maximum of 216 clones per donor; for Overall immunogenicity call in T-cell assays: priming assay and/or T-cell clones
Protocol: To establish T-cell lines, PBMC from 3 healthy HLA-typed (Table 2) donors were cultured with individual test compounds (at concentrations not associated with inhibition of mitogen-driven PBMC proliferation; see Figure 2 for individual concentrations) for 14 days. Medium was supplemented with IL-2 (50 U/ml; Peprotech, New Jersey) to maintain drug-specific T-cell expansion. T-cell clones were generated from the T-cell lines by serial dilution and repetitive mitogen stimulation ([Schnyder et al., 2000]). T-cells (0.3–3 cells/well) were cultured with irradiated allogenic PBMC (5 × 10^4/well) and PHA-P (1 µg/ml) in IL-2 containing medium. The medium was supplemented with fresh IL-2 on days 6, 9 and every 2 days thereafter. Growing cultures were expanded further with a second round of mitogen stimulation and tested for drug-specific T-cell proliferation on day 28. Cloned T-cells (5 × 10^4/well) were cultured with irradiated autologous EBV-transformed B-cells (1 × 10^4/well) and drug in duplicate wells for 48 h. Wells containing medium served as a negative control. Proliferation was measured by the addition of [^3H]-thymidine followed by scintillation counting. T-cell clones with SI ≥ 2 were considered drug-responsive and expanded using irradiated allogeneic PBMC for dose-response studies and assessment of CD4/8 phenotyping.
Proliferation was measured by the addition of [^3H]-thymidine as described above.
T-cell clones were washed with FACS buffer and CD phenotype determined using flow cytometry. Cells (10 000) were acquired using a FACSCanto II (BD Biosciences) and data analyzed by FACSDiva software.
Figure 6. Generation of training compound (nitroso sulfamethoxazole, vancomycin, and Bandrowski’s base)-specific T-cell clones. PBMC from 3 healthy donors were cultured with training compounds and supplemented with IL-2 (50 U/ml) for 14 days. T-cell clones were generated from the T-cell lines by serial dilution and repetitive mitogen stimulation. T-cells (0.3–3 cells/well) were stimulated with irradiated allogenic PBMC (5 × 10^4/well) and phytohemagglutinin (1 µg/ml). Well growing cultures were subjected to a second round of expansion then tested for drug-specific T-cell proliferation. Proliferation was measured by the addition of ^3H-thymidine followed by scintillation counting. A–C, Initial specificity test for nitroso sulfamethoxazole, vancomycin, and Bandrowski’s base clones. T-cell clones showing stimulation index, SI ≥ 2 were considered drug-responsive and expanded and used in dose-response studies. SI = Drug-induced T-cell proliferation divided by T-cell proliferation in cell culture media. […] T-cell activation was determined using [^3H]-thymidine incorporation.
Figure 7. […] PBMC from 3 healthy donors were cultured with test compounds and supplemented with IL-2 (50 U/ml) for 14 days. T-cell clones were generated from the T-cell lines by serial dilution and repetitive mitogen stimulation. T-cells (0.3–3 cells/well) were stimulated with irradiated allogenic PBMC (5 × 10^4/well) and phytohemagglutinin (1 µg/ml). Well growing cultures were subjected to a second round of expansion then tested for drug-specific T-cell proliferation. Proliferation was measured by the addition of ^3H-thymidine followed by scintillation counting. […] T-cell activation was determined using [^3H]-thymidine incorporation.

[1] = design: method as in Sakatis et al., 2012; Schofield et al., 2021; conditions: Positive = above the threshold of concern; assays not listed negative; ref Sakatis et al., 2012; Schofield et al., 2021; cited from earlier work
[2] = design: method as in FDA DILIrank datasets; conditions: ref FDA DILIrank datasets; cited from earlier work
[3] = Homo sapiens, PBMC, PBMC from 3 healthy donors, compound 48 h, then PHA-P 10 µg/ml 24 h, [3H]-thymidine, read-out: IC50, inhibition of mitogen-driven PBMC proliferation
[4] = PBMC from 3 healthy donors, compound 48 h, then PHA-P 10 µg/ml 24 h, [3H]-thymidine, read-out: IC50, inhibition of mitogen-driven PBMC proliferation

Compound | Proliferation of primed T-cells restimulated with titrated concentrations (naïve T-cells) | Number of donors with naïve T-cell priming (naïve T-cells) | Proliferation of primed T-cells, drug- vs medium-restimulated wells (naïve T-cells) | Detection of drug-responsive T-cell clones (T-cell clones) | Dose-dependent proliferation of drug-responsive T-cell clones (T-cell clones) | T-cell clones responsive to drug (SI ≥ 2) (T-cell clones) | IC50 (PBMC; [4]) | Overall immunogenicity call in T-cell assays (T-cell clones) | other results
NC1=CC(=N\c2ccc(N)cc2)/C(N)=CC/1=N/c1ccc(N)cc1 [Bandrowski's base] | stimulated to proliferate in the presence of all 3 concentrations | 3 | Proliferation of primed T-cells was observed | detected from each donor | proliferate in a dose-dependent manner | 13% |  |  | IC50 (PBMC; [3]): 5 µM
NC(=O)N1c2ccccc2C=Cc2ccccc21 [Carbamazepine] |  | 1 | not observed | not detected |  |  | 260 µM |  | IC50 (PBMC; PBMC from 3 healthy donors, compound 48 h, then PHA-P 10 µg/ml 24 h, [3H]-thymidine, listed as carbamazepine, read-out: IC50, inhibition of mitogen-driven PBMC proliferation): ≥ 50 µM; Proliferation of primed T-cells on restimulation at highest concentration (naïve T-cells; restimulated at 200 µM): weakly significant proliferative response
CN(C)CCOC(c1ccccc1)c1ccccc1 [Diphenhydramine] |  |  |  |  |  |  |  | no false positives | 
CC[C@H]1OC(=O)[C@H](C)[C@@H](O[C@H]2C[C@@](C)(OC)[C@@H](O)[C@H](C)O2)[C@H](C)[C@@H](O[C@@H]2O[C@H](C)C[C@H](N(C)C)[C@H]2O)[C@](C)(O)C[C@@H](C)C(=O)[C@H](C)[C@@H](O)[C@]1(C)O [Erythromycin] |  |  |  |  | dose-dependent proliferative responses |  | 160 µM | potentially immunogenic | IC50 (PBMC; PBMC from 3 healthy donors, compound 48 h, then PHA-P 10 µg/ml 24 h, [3H]-thymidine, listed as erythromycin, read-out: IC50, inhibition of mitogen-driven PBMC proliferation): ≥ 50 µM; Number of drug-responsive T-cell clones (T-cell clones; donor 2): 3; T-cell clones stimulated to proliferate, donor 2 (T-cell clones; donor 2, maximum of 144 clones per donor): 2%; Detection of drug-responsive T-cell clones, other donors (T-cell clones; donors other than donor 2): not detected; CD phenotype of drug-responsive T-cell clones (T-cell clones; flow cytometry CD4/CD8): CD4+; Routine Assays that are Positive (GSK) [1]: Reactive metabolite
Cc1cc(NS(=O)(=O)c2ccc(N=O)cc2)no1 [Nitroso sulfamethoxazole, 4-Nitrososulfamethoxazole] | stimulated to proliferate in the presence of all 3 concentrations | 3 | Proliferation of primed T-cells was observed | detected from each donor | proliferate in a dose-dependent manner | 10.0% | 250 µM |  | IC50 (PBMC; PBMC from 3 healthy donors, compound 48 h, then PHA-P 10 µg/ml 24 h, [3H]-thymidine, listed as nitroso sulfamethoxazole, read-out: IC50, inhibition of mitogen-driven PBMC proliferation): ≥ 50 µM
CC(COc1ccccc1)N(CCCl)Cc1ccccc1 (centres unmarked) [Phenoxybenzamine] |  |  |  |  |  |  |  | no false positives | IC50 (PBMC; Homo sapiens, PBMC, read-out: IC50, inhibition of mitogen-driven PBMC proliferation, PBMC from 3 healthy donors, compound 48 h, then PHA-P 10 µg/ml 24 h, [3H]-thymidine): 15 µM; IC50 (PBMC; read-out: IC50, inhibition of mitogen-driven PBMC proliferation, PBMC from 3 healthy donors, compound 48 h, then PHA-P 10 µg/ml 24 h, [3H]-thymidine): ≤ 20 µM; Routine Assays that are Positive (GSK) [1]: Reactive metabolite; FDA Clinical Hepatotoxicity Concern [2]: No
CCN1CCN(C(=O)N[C@@H](C(=O)N[C@@H]2C(=O)N3[C@@H]2SC(C)(C)[C@@H]3C(=O)O)c2ccccc2)C(=O)C1=O [Piperacillin] | not detected |  | not observed | not detected |  |  |  |  | IC50 (PBMC; [3]): 1000 µM
CN[C@H](CC(C)C)C(=O)N[C@H]1C(=O)N[C@@H](CC(N)=O)C(=O)N[C@H]2C(=O)N[C@H]3C(=O)N[C@H](C(=O)N[C@H](C(=O)O)c4cc(O)cc(O)c4-c4cc3ccc4O)[C@H](O)c3ccc(c(Cl)c3)Oc3cc2cc(c3O[C@@H]2O[C@H](CO)[C@@H](O)[C@H](O)[C@H]2O[C@H]2C[C@](C)(N)[C@H](O)[C@H](C)O2)Oc2ccc(cc2Cl)[C@H]1O [Vancomycin] | stimulated to proliferate in the presence of all 3 concentrations | 3 | Proliferation of primed T-cells was observed | detected from each donor | proliferate in a dose-dependent manner | 9.7% |  |  | IC50 (PBMC; Homo sapiens, PBMC, read-out: IC50, inhibition of mitogen-driven PBMC proliferation): 2000 µM
